Assay results from US9513253B2, “Droplet actuators and techniques for droplet-based enzymatic assays” (Advanced Liquid Logic, Inc., priority 2011, dated 2016).

Test: 4-MU partitioning assay, backward transfer partitioning (backward extraction; BE), effect of aqueous phase surfactants on 4-MU containment
Type: physicochemical
Conditions: surfactant at 1.5 times its CMC; oil phase 5 cSt silicone oil with 0.1% w/v Triton X-15; lower signal = better 4-MU retention
Excerpt: The efficacy of different surfactants (detergents) in containing 4-MU (or derivatives) within an aqueous phase may, for example, be evaluated using a partitioning assay. Parameters that may be varied in the assay for evaluation of surfactants in aqueous containment of 4-MU (or derivatives) include, but are not limited to, the pH of the aqueous phase solution, and the critical micelle concentration of the surfactant.
The assay format includes forward transfer partitioning (forward extraction; FE) of 4-MU from an aqueous phase to an oil phase and backward transfer partitioning (backward extraction; BE) of 4-MU from an oil phase to an aqueous phase. The assay is performed in 96-well microtiter substrates; clear 96-well substrates (e.g., Costar 3631) for evaluation of forward transfer partitioning with bottom probe fluorescence detection and solid black 96-well substrates (e.g., Costar 3915) for evaluation of backward transfer partitioning with top probe fluorescence detection. A BioTek Synergy HT instrument with 3 mm top probe and 5 mm bottom probe, may, for example, be used for fluorescence measurements. […]

- relative fluorescence reading, backward transfer partitioning (BE) of 4-MU: 43,000-44,000 RFU
Substance: ANAPOE ®-20 (Tween ® 20) [AS17]
